Experimental data: patent US10669272B2, “Substituted naphthyridinone compounds useful as T cell activators” (BRISTOL-MYERS SQUIBB COMPANY, priority 2018, dated 2020)
Read-outs that look alike come from different tables or passages of the source.

What was measured:
human DGKζ = target: T1, human DGKζ (Homo sapiens, UniProt Q13574); assay: DGKζ LIPGLO assay (extruded liposome substrate), in vitro DGK inhibition; type: biochemical; settings: read-out: DGKz LIPGLO IC50
T1 construct: TVMV protease cleavage site (C); Hexa-His (C); made in house; host or cells: Sf9 insect cells (baculovirus, Bac-to-Bac)
T1 sequence (Q13574 with tags, fused parts or gaps isoform Q13574-4): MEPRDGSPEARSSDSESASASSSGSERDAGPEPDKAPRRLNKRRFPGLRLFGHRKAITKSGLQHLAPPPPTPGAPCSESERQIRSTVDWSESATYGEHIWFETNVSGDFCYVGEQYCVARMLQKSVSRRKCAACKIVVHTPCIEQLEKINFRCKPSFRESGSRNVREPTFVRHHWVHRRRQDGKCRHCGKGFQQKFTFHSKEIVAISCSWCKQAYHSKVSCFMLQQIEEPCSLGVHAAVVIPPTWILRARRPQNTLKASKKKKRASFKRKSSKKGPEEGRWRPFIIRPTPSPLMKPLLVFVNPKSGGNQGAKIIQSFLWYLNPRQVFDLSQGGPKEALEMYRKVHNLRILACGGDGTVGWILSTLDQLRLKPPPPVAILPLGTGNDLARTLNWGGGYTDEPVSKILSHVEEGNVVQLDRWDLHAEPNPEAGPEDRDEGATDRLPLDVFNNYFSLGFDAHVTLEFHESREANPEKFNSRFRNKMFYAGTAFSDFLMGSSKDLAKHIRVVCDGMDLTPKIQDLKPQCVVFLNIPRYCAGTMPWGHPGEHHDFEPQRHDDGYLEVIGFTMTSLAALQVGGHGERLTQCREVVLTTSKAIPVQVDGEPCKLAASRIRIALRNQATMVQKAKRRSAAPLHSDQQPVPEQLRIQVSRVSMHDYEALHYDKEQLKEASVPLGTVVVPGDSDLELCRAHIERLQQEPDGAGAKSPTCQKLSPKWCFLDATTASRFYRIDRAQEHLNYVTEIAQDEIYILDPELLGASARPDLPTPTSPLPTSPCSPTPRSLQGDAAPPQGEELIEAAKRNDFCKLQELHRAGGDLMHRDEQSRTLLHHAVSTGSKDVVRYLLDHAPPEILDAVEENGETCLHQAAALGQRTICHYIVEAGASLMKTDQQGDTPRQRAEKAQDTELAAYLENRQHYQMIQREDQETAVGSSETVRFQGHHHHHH

Human venous whole blood = assay: Human whole blood IFN-γ assay; type: cell-based; settings: human whole blood, read-out: INFg Whole Blood Normalized Agonist EC50;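 further: blood from healthy donors exposed to compound for 1 h before stimulation with anti-CD3 and anti-CD28 at 1 µg/mL each, IFN-γ quantified in supernatant by AlphaLISA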
human DGKα = target: T2, human DGKα (Homo sapiens, UniProt P23743); assay: DGKα LIPGLO assay (extruded liposome substrate), in vitro DGK inhibition; type: biochemical; settings: read-out: DGKa LIPGLO IC50
T2 construct: TVMV protease cleavage site (C); Hexa-His (C); made in house; host or cells: Sf9 insect cells (baculovirus, Bac-to-Bac)
T2 sequence (P23743 with tags, fused parts or gaps): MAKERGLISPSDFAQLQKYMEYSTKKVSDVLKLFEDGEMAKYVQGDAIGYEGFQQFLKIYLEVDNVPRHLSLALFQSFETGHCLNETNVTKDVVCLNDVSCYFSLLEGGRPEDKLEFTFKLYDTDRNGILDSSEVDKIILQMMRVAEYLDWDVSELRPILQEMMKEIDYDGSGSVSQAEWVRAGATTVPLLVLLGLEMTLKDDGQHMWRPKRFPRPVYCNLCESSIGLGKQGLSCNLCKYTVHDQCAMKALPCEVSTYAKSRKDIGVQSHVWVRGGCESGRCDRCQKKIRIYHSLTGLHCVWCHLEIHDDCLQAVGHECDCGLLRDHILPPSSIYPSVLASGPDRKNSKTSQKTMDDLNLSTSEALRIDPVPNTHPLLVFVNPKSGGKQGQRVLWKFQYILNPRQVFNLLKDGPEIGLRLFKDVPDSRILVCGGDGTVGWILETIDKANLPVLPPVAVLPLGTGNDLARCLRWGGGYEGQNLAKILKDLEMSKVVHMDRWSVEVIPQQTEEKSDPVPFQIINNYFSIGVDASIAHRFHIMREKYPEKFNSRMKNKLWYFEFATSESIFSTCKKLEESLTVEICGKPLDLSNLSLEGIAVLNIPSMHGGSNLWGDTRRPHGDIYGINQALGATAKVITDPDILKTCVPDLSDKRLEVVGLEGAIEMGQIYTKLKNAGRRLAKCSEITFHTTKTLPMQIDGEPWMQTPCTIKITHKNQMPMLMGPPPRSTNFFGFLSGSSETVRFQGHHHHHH

[1] = Homo sapiens, 24 h, normalized to 3 μM reference compound with anti-CD3 plus anti-CD28 as 100% activation
[2] = normalized to 3 μM reference compound with anti-CD3 plus anti-CD28 as 100% activation
[3] = Homo sapiens, 24 h, anti-CD3 plus anti-CD28, 24 hours, 3 μM reference compound = 100% activation

| SMILES | IC50 (human DGKζ; liposome (LIPGLO) assay) | IC50 (human DGKα; liposome (LIPGLO) assay) | IC50 (human DGKζ; DGKζ liposome (LIPGLO) assay) | IC50 (human DGKα; DGKα liposome (LIPGLO) assay) | EC50 (Human venous whole blood; [1]) | EC50 (Human venous whole blood; [2]) | EC50 (Human venous whole blood; [3]) |
| --- | --- | --- | --- | --- | --- | --- | --- |
| Cc1ccc(C(c2cccc(F)c2)N2C[C@H](C)N(c3cc(=O)n(C)c4ccc(C#N)nc34)C[C@H]2CO)nc1 (stereo partly drawn) [Example 1154] | 50000 nM | 8100 nM | – | – | 2400 nM | – | – |
| CC(c1cccc2c1OC(F)(F)O2)N1C[C@H](C)N(c2cc(=O)n(C)c3ccc(C#N)nc23)C[C@H]1C (single isomer, unassigned) [Example 1217] | 2100 nM | 37000 nM | – | – | – | 4600 nM | – |
| C[C@@H]1CN(c2c(F)c(=O)n(C)c3ccc(C#N)nc23)[C@@H](C)CN1C(c1ccc(F)cc1)c1ccc(C(F)(F)F)cc1 (stereo partly drawn) [Example 325, 7-fluoro-8-((2S,5R)-4-((4-fluorophenyl)(4-(trifluoromethyl)phenyl)methyl)-2,5-dimethylpiperazin-1-yl)-5-methyl-6-oxo-5,6-dihydro-1,5-naphthyridine-2-carbonitrile] | 2300 nM | 680 nM | – | – | – | 3200 nM | – |
| C[C@@H]1CN(c2c(C#N)c(=O)n(C)c3ccc(C#N)nc23)CCN1C(c1ccccc1)c1cc(F)cc(F)c1 (single isomer, unassigned) [Example 875] | – | – | 510 nM | 1700 nM | – | – | 3100 nM |
| CC(c1ccc(C(F)(F)F)cc1)N1CCN(c2c(C#N)c(=O)n(C)c3ccc(C#N)nc23)C[C@H]1C (single isomer, unassigned) [Example 960] | – | – | 6600 nM | 6700 nM | – | – | 20000 nM |
| [2H]C(CC)(c1ccc(F)cc1)N1C[C@H](C)N(c2cc(=O)n(C)c3ccc(C#N)nc23)C[C@H]1C (single isomer, unassigned) [Example 574] | 28000 nM | 1800 nM | – | – | – | 7300 nM | – |
| CC[C@H]1CN(C(c2ccc(F)cc2)c2ccc(C#N)cc2)[C@H](C)CN1c1cc(=O)n(C)c2ccc(C#N)nc12 (stereo partly drawn) [Example 1124] | 3100 nM | 880 nM | – | – | – | 1400 nM | – |
| C[C@@H]1CN(c2cc(=O)n(C)c3ccc(C#N)nc23)[C@@H](C)CN1C(c1ccc(F)cc1)c1cncn1C (stereo partly drawn) [Example 705] | 19000 nM | 220000 nM | – | – | – | 9100 nM | – |
| C[C@@H]1CN(c2cc(=O)n(C)c3ccc(C#N)nc23)[C@@H](C)CN1C(c1ccc(F)cc1)c1nnnn1C(C)(C)C (single isomer, unassigned) [Example 770] | – | – | 1700 nM | 21000 nM | – | – | 8500 nM |
| C[C@@H]1CN(c2cc(=O)n(C)c3ccc(C#N)nc23)[C@@H](C)CN1C(c1ccc(F)cc1)c1nc(C2CC2)co1 (single isomer, unassigned) [Example 777] | – | – | 750 nM | 68 nM | – | – | 770 nM |
| Cc1ccc(C(c2ccc(F)cc2Cl)N2C[C@H](C)N(c3c(C#N)c(=O)n(C)c4ccc(C#N)nc34)C[C@H]2C)nc1 (stereo partly drawn) [Example 831] | – | – | 6500 nM | 42000 nM | – | – | 2500 nM |
| C[C@@H]1CN(c2cc(=O)n(C)c3ccc(C#N)nc23)[C@@H](C)CN1C(c1ccc(F)cc1)c1cc(F)ccn1 (single isomer, unassigned) [Example 473] | 4000 nM | 1700 nM | – | – | – | 880 nM | – |
| C[C@@H]1CN(c2c(C#N)c(=O)n(C)c3ccc(C#N)nc23)CCN1C(c1ccc(F)cc1)c1ccc(F)cc1F (single isomer, unassigned) [Example 947] | – | – | 270 nM | 2000 nM | – | – | 340 nM |

Second part, led by results:

| IC50 (human DGKζ; liposome (LIPGLO) assay) | IC50 (human DGKα; liposome (LIPGLO) assay) | IC50 (human DGKζ; DGKζ liposome (LIPGLO) assay) | IC50 (human DGKα; DGKα liposome (LIPGLO) assay) | SMILES | EC50 (Human venous whole blood; [1]) | EC50 (Human venous whole blood; [2]) | EC50 (Human venous whole blood; [3]) |
| --- | --- | --- | --- | --- | --- | --- | --- |
| 460 nM | 140 nM | – | – | C[C@@H]1CN(c2cc(=O)n(C)c3ccc(C#N)nc23)[C@@H](C)CN1C(c1ccc(Cl)cc1)c1ccccn1 (mixture of isomers) [Example 403, 8-((2S,5R)-4-((4-chlorophenyl)(pyridin-2-yl)methyl)-2,5-dimethylpiperazin-1-yl)-5-methyl-6-oxo-5,6-dihydro-1,5-naphthyridine-2-carbonitrile] | 170 nM | – | – |
| 580 nM | 400 nM | – | – | CC[C@H]1CN(C(c2ccc(F)cc2)c2ccc(F)cc2)[C@H](C)CN1c1cc(=O)n(C)c2ccc(C#N)nc12 [Example 1118] | 360 nM | – | – |
| 980 nM | 200 nM | – | – | C[C@@H]1CN(c2cc(=O)n(C)c3ccc(C#N)nc23)[C@@H](C)CN1C(c1ccc(F)cn1)c1cccc2c1OC(C)(C)C2 (single isomer, unassigned) [Example 465] | 20000 nM | – | – |
| 1000 nM | 29 nM | – | – | C[C@@H]1CN(c2cc(=O)n(C)c3ccc(C#N)nc23)[C@@H](C)CN1C(c1ccc(F)cn1)c1ccc(F)cn1 [Example 407, 8-((2S,5R)-4-(bis(5-fluoropyridin-2-yl)methyl)-2,5-dimethylpiperazin-1-yl)-5-methyl-6-oxo-5,6-dihydro-1,5-naphthyridine-2-carbonitrile] | 20000 nM | – | – |
| 170 nM | 760 nM | – | – | CC[C@H]1CN(C(c2ccc(F)cc2)c2ccc(C#N)cc2)[C@H](COC)CN1c1cc(=O)n(C)c2ccc(C#N)nc12 (single isomer, unassigned) [Example 1170] | 230 nM | – | – |
| 1400 nM | 4400 nM | – | – | CC[C@@H]1CN(c2cc(=O)n(C)c3ccc(C#N)nc23)[C@@H](C)CN1C(C)c1ccc(C2CC2)cc1F (single isomer, unassigned) [Example 1341] | – | 2000 nM | – |
| 170 nM | 27 nM | – | – | CC[C@@H]1CN(c2cc(=O)n(C)c3ccc(C#N)nc23)[C@@H](C)CN1C(c1ccc(Cl)cc1)c1ccccn1 (single isomer, unassigned) [Example 423] | – | 740 nM | – |
| 95 nM | 110 nM | – | – | CCC(c1ccc(C2CC2)cc1)N1C[C@H](C)N(c2cc(=O)n(C)c3ccc(C#N)nc23)C[C@H]1C (single isomer, unassigned) [Example 1220] | – | 120 nM | – |
| 75 nM | 75 nM | – | – | CC(c1ccc(C2CC2)cc1)N1C[C@H](C)N(c2cc(=O)n(C)c3ccc(C#N)nc23)C[C@H]1C (single isomer, unassigned) [Example 1214] | – | 220 nM | – |
| 630 nM | 340 nM | – | – | CCC(c1ccc(OC(F)(F)F)cc1)N1C[C@H](CC)N(c2cc(=O)n(C)c3ccc(C#N)nc23)C[C@H]1CC (single isomer, unassigned) [Example 1060] | 2500 nM | – | – |
| 910 nM | 60 nM | – | – | CC[C@H]1CN(C(c2ccc(F)cc2)c2cocn2)[C@H](CC)CN1c1cc(=O)n(C)c2ccc(C#N)nc12 (single isomer, unassigned) [Example 1069] | – | 2100 nM | – |
| 280 nM | 290 nM | – | – | CC[C@H]1CN(C(C)c2ccc(OC(F)F)cc2)[C@H](CC)CN1c1cc(=O)n(C)c2ccc(C#N)nc12 (single isomer, unassigned) [Example 1374] | – | 2700 nM | – |
| 1100 nM | 140 nM | – | – | Cc1ccc(C(c2ccc(C)cn2)N2C[C@H](C)N(c3cc(=O)n(C)c4ccc(C#N)nc34)C[C@H]2C)cc1 (single isomer, unassigned) [Example 457] | – | 590 nM | – |
| 11 nM | 2500 nM | – | – | CC(c1ccc2nccnc2c1)N1C[C@H](C)N(c2cc(=O)n(C)c3ccc(C#N)nc23)C[C@H]1C (single isomer, unassigned) [Example 650] | – | 290 nM | – |
| 400 nM | 220 nM | – | – | COCC(c1ccc(C(F)(F)F)cn1)N1C[C@H](C)N(c2cc(=O)n(C)c3ccc(C#N)nc23)C[C@H]1C (single isomer, unassigned) [Example 1278] | – | 2000 nM | – |
